# Laboratory results published in patent publication US20120046354A1, “ANTI-OXIDANT LOZENGES FOR THE PREVENTION AND TREATMENT OF RADIATION INDUCED MUCOSITIS, PRECANCEROUS LESIONS, ORAL CANCER AND OTHER ORAL CAVITY MUCOSAL DISORDERS” (priority 2010, published 2012).
# Tests used:
# severe mucositis = conditions: 250 mg daily for 21 days then 75 mg daily; control group 38 patient-weeks, P=0.025; cited from earlier work
# mucositis = conditions: mouthwash; cited from earlier work
# leukoplakia = tested on: leukoplakia; set-up: clinical response rate / response rate among patients with biopsy-proved dysplasia: dose or concentration left out as unconfirmed; conditions: cited from earlier work
# oral leukoplakia = conditions: topically applied; cited from earlier work
# [1] = tested on: radiation-induced anal ulceration; experiment: case of a patient with AIDS and anal carcinoma with radiation-induced anal ulceration, orally administered vitamin A; format: in vivo, human; conditions: single patient
# From the text: (§1) The inventor has described a dramatic case of the patient with AIDS and anal carcinoma who developed a large radiation-induced anal ulceration with marked debility. The patient required high dose opioid therapy for control of anal pain. […] The inventor has also designed, conducted and published a randomized double-blinded trial comparing vitamin A in the form of retinyl palmitate (10,000 IU by mouth for 90 days) to placebo in patients with radiation proctopathy.
# radiation proctopathy = experiment: randomized double-blinded trial versus placebo in patients with radiation proctopathy; format: in vivo, human; conditions: 10,000 IU by mouth for 90 days
# From the text: as §1
# wound healing = conditions: following burn injury and surgeries, laboratory animals; cited from earlier work
# [2] = tested on: mucositis after chemotherapy; conditions: 1 mL topical oil (400 mg) twice daily, 18 patients; cited from earlier work
# [3] = three months of therapy, placebo 10 percent
compound,measurement,setting,value
CC1=C(/C=C/C(C)=C/C=C/C(C)=C/C=C/C=C(C)/C=C/C=C(C)/C=C/C2=C(C)CCCC2(C)C)C(C)(C)CCC1 [beta-carotene],severe mucositis,severe mucositis,22 patient-weeks
[H]/N=C(\N/C(=N/[H])NCCCCCCNC(=N)NC(=N)Nc1ccc(Cl)cc1)Nc1ccc(Cl)cc1 [chlorhexidine],effectiveness for mucositis,mucositis,limited or possibly no effectiveness
"CC1=C(/C=C/C(C)=C/C=C/C(C)=C\C(=O)O)C(C)(C)CCC1 [isotretinoin, 13-cis-retinoic acid]",patients who required decreases in their dosage,"leukoplakia; higher dose, 2 mg/kg per day",47%
same,patients who developed conjunctivitis,"leukoplakia; lower dose, 1 mg/kg per day",29%
same,xeroderma,"leukoplakia; lower dose, 1 mg/kg per day",common
same,clinical response rate,leukoplakia; [3],67%
same,response rate among patients with biopsy-proved dysplasia,leukoplakia; [3],54%
same,patients with relapse of disease,leukoplakia; within three months of discontinuation of treatment,about half
O=C(c1ccccc1)c1ccc2n1CCC2C(=O)O (centres unmarked) [ketolorac],treatment of oral leukoplakia,oral leukoplakia,did not appear to effectively treat
CCCCCCCCCCCCCCCC(=O)OC/C=C(C)/C=C/C=C(C)/C=C/C1=C(C)CCCC1(C)C [retinyl palmitate],persistence of wound healing and symptomatic relief,[1]; after twelve week oral course,more than six
same,wound healing and symptomatic relief,"[1]; twelve week course, orally administered",complete wound healing and symptomatic relief
same,rectal symptoms of radiation proctopathy,radiation proctopathy,significantly reduced
Vitamin A,wound healing,wound healing,accelerate wound healing
vitamin E,benefit on mucosal lesions compared to soybean oil,[2],benefit
